Test results taken from patent US20090082304A1, “Methods of Treating Hematological Malignancies with Nucleoside Analog Drugs” (NORTHWESTERN UNIVERSITY, priority 2004, published 2009).

What was measured:
Format in all cases: cell-based
[1] = system: ERK1/2; test: Immunoblot of phospho-ERK1/2 in MM.1 S cells; details: 10 μM
Experimental: 5×10^6 were cells treated with 10 μM 8-NH2-Ado for the indicated times and harvested. Cell pellets were washed with cold phosphate-buffered saline (PBS; 8.1 g NaCl, 1.14 g Na2HPO4, 0.22 g KCl, and 0.25 g/L KH2PO4) and incubated with lysis buffer (50 mM HEPES, 150 mM NaCl, 1.5 mM MgCl2, 1 mM EDTA pH 8.0, 100 mM NaFI, 10 mM Na Pyrophosphate, 500 μM PMSF, 0.5% Triton X-100, 10% glycerol) at 4° C. for one hour. Lysates were centrifuged at 4° C. for 1 minute at 9000×g, and the supernatants were collected and stored at −20° C. Protein concentration was determined by Bio-Rad protein assay (BioRad Laboratories, Hercules, Calif.). Protein, at a concentration of 30 μg, was mixed with sample buffer (125 mM Tris, pH 6.8, 4% SDS, 20% glycerol, 100 mM Dithiothreitol (DTT), and 0.05% bromophenol blue), and fractionated on a pre-cast 8-16% Tris-Glycine gel (Invitrogen/Novex, Carlsbad, Calif.). Proteins were then transferred to a Polyvinylidene Fluoride (PVDF) membrane (Immobilon-P, Millipore, Bedford, Mass.): Following protein transfer, membranes were blocked with 5% non-fat milk in PBS-T (PBS with 0.1% Tween), incubated with the primary antibody overnight at 4° C. and subsequently with horseradish peroxidase linked secondary antibody (Amersham, Arlington Heights, Ill.). Blots were developed using ECL Plus Chemiluminescent Western Blotting Detection reagent (Amersham, Arlington Heights, Ill.) and the signal was visualized with X-ray film (Hyperfilm, Amersham, Arlington Heights, Ill.). For reprobing purposes, blots were stripped using Restore Western Blot Stripping Buffer from Pierce Biotechnology (Rockford, Ill.). Phospho-MKK3/6 (Ser189/207), phospho-p38 (Thr180/Tyr182), phospho-ATF-2 (Thr69/71), phospho-c-Raf (Ser259), phospho-MEK1/2 (Ser217/221), total MEK1/2, phospho-ERK1/2 (Thr202/Tyr204), total ERK1/2, phospho-p90RSK (Ser380), total RSK, phospho-PDK1 (Ser241), total PDKI, phospho-PTEN (Ser380), total PTEN, phospho-Akt (Ser473), total Akt, phospho-GSK-3β (Ser9), total GSK-3β, phospho-FKHRLI (Thr32)/-FKHR (Thr24), phospho-FKHR (Ser256) primary antibodies were obtained from Cell Signaling Technology (Beverly, Mass.). Total MKK3, total MKK6, total p38, total ATF-2, total c-Raf, total FKHR, total FKHRLI, phospho-JNK and total JNK were purchased from Santa Cruz Biotechnology (Santa Cruz, Calif.). Caspase 3, caspase 9, and PARP antibodies were obtained from Pharmingen (San Diego, Calif.) and anti-MKP1 from Upstate (Lake Placid, N.Y.). Anti-caspase 8 mouse serum was a generous gift of Dr. Marcus Peter (University of Chicago).
MM.1 S cells were exposed to 10 μM 8-NH2-Ado for 0, 0.5, 1, 2, 4 and 6 hours, after which cells were lysed as previously (Example 2). 30 μg of protein was separated by gel electrophoresis, transferred to PVDF membrane, and probed with phosphorylation-specific antibodies to MKK3/6, p38 MAPK, ATF-2, MEK1/2, ERK1/2, p90RSK, JNK1, PDK1, Akt, FKHRL1 and GSK-3β.
MM. I S cells were treated with 10 μM 8-chloro-adenosine for 0, 0.5, 1, 2, 4 or 6 hours or 10 μM of cytarabine, fludarabine, gemcitabine or 8-amino-adenosine for 4 hours. Cells were lysed as previously described and 30 μg of protein was separated by gel electrophoresis, transferred to PVDF membrane, and probed with phospho-p38 MAPK (Thr180/Tyr182) antibody.
MM.1 S cells were grown in dextrose-free media and treated with 2 μM Antimycin A, 5 mM 2-DOG, and varying concentrations of dextrose for 90 minutes. Cellular ATP levels were determined using triplicate samples in a luciferase based assay and are expressed here as a percentage of untreated control.

[2] = system: PDK1; test: Immunoblot of PDK1 (total and phosphorylated) in MM.1 S cells; details: 10 μM, 0-6 hours
Experimental: (§1) 5×10^6 were cells treated with 10 μM 8-NH2-Ado for the indicated times and harvested. Cell pellets were washed with cold phosphate-buffered saline (PBS; 8.1 g NaCl, 1.14 g Na2HPO4, 0.22 g KCl, and 0.25 g/L KH2PO4) and incubated with lysis buffer (50 mM HEPES, 150 mM NaCl, 1.5 mM MgCl2, 1 mM EDTA pH 8.0, 100 mM NaFI, 10 mM Na Pyrophosphate, 500 μM PMSF, 0.5% Triton X-100, 10% glycerol) at 4° C. for one hour. Lysates were centrifuged at 4° C. for 1 minute at 9000×g, and the supernatants were collected and stored at −20° C. Protein concentration was determined by Bio-Rad protein assay (BioRad Laboratories, Hercules, Calif.). Protein, at a concentration of 30 μg, was mixed with sample buffer (125 mM Tris, pH 6.8, 4% SDS, 20% glycerol, 100 mM Dithiothreitol (DTT), and 0.05% bromophenol blue), and fractionated on a pre-cast 8-16% Tris-Glycine gel (Invitrogen/Novex, Carlsbad, Calif.). Proteins were then transferred to a Polyvinylidene Fluoride (PVDF) membrane (Immobilon-P, Millipore, Bedford, Mass.): Following protein transfer, membranes were blocked with 5% non-fat milk in PBS-T (PBS with 0.1% Tween), incubated with the primary antibody overnight at 4° C. and subsequently with horseradish peroxidase linked secondary antibody (Amersham, Arlington Heights, Ill.). […]

[3] = system: GSK-3β; test: Immunoblot of phospho-GSK-3β in MM.1 S cells; details: 10 μM
Experimental: as §1

[4] = system: PTEN; test: Immunoblot of PTEN (total and phospho) in MM.1 S cells; details: 10 μM, 0-6 hours
Experimental: as §1, with “Calif.).” for “Calif.). Proteins were then transferred to a Polyvinylidene Fluoride (PVDF) membrane (Immobilon-P, Millipore, Bedford, Mass.): Following protein transfer, membranes were blocked with 5% non-fat milk in PBS-T (PBS with 0.1% Tween), incubated with the primary antibody overnight at 4° C. and subsequently with horseradish peroxidase linked secondary antibody (Amersham, Arlington Heights, Ill.).”
In addition, the effect of 8-NH2-Ado treatment on PTEN, which encodes a key phosphatase involved in the negative regulation of the PI3K/Akt signaling pathway was assessed (FIG. 5B). […]

[5] = system: caspase 8; test: Caspase 8 activation immunoblot in MM.1 S cells; details: 10 μM
Experimental: as §1, with “Calif.).” for “Calif.). Proteins were then transferred to a Polyvinylidene Fluoride (PVDF) membrane (Immobilon-P, Millipore, Bedford, Mass.): Following protein transfer, membranes were blocked with 5% non-fat milk in PBS-T (PBS with 0.1% Tween), incubated with the primary antibody overnight at 4° C. and subsequently with horseradish peroxidase linked secondary antibody (Amersham, Arlington Heights, Ill.).”
(§2) MM.1 S cells were exposed to 10 μM 8-NH2-Ado for 0, 0.5, 1, 2, 4 or 6 hours, after which cells were lysed as previously described. […] Total protein levels were also assessed to ensure equal loading and transfer (data not shown). […]

[6] = system: caspase 9; test: Caspase 9 activation immunoblot in MM.1 S cells; details: 10 μM
Experimental: as §1, with “Calif.).” for “Calif.). Proteins were then transferred to a Polyvinylidene Fluoride (PVDF) membrane (Immobilon-P, Millipore, Bedford, Mass.): Following protein transfer, membranes were blocked with 5% non-fat milk in PBS-T (PBS with 0.1% Tween), incubated with the primary antibody overnight at 4° C. and subsequently with horseradish peroxidase linked secondary antibody (Amersham, Arlington Heights, Ill.).”
as §2

[7] = system: PKC-8; test: Phosphorylation status of PKC-8
[8] = system: STAT proteins; test: Phosphorylation status of STAT proteins

SMILES: Nc1ncnc2c1nc(N)n2[C@@H]1O[C@H](CO)[C@@H](O)[C@H]1O [8-NH2-Ado, 8-amino-adenosine]
- phosphorylation of ERK1/2 ([1]; 4 hours, data not shown): dramatic loss of phosphorylation
- Phosphorylation of the ERK1/2 kinases ([1]; by 30 minutes): decreases significantly
- Phosphorylation of the ERK1/2 kinases ([1]; by 2 hours): declines to negligible levels
- Total and phosphorylated levels of PDK1 [2]: remain unchanged
- Phospho-OSK-3p levels ([3]; by 2 hours): diminish
- Phospho-OSK-3p levels ([3]; by 6 hours): negligible
- total and phospho-PTEN levels [4]: unaltered
- time at which cleaved and activated caspase 8 appears [5]: 2 to 4 h
- time at which cleaved and activated caspase 9 appears [6]: 2 to 4 h
- phosphorylation status of PKC-8 [7]: unaltered
- phosphorylation status of the STAT proteins [8]: unaltered
